Results reported in ChEMBL document CHEMBL4118132, “Novel 5-methyl-2-phenylphenanthridium derivatives as FtsZ-targeting antibacterial agents from structural simplification of natural product sanguinarine” (2018).
In brackets after ≈: the same amount, converted by molar mass.

Experiments:
Format in all cases: functional
Staphylococcus aureus [1] = assay: Antibacterial activity against penicillin-susceptible Staphylococcus aureus ATCC 25923 after 24 hrs by broth microdilution method; details: ATCC 25923, 24 h
Staphylococcus aureus [2] = assay: Antibacterial activity against methicillin-resistant Staphylococcus aureus ATCC 43300 after 24 hrs by broth microdilution method; details: ATCC 43300, 24 h
Staphylococcus aureus [3] = assay: Antibacterial activity against penicillin-resistant Staphylococcus aureus clinical isolate after 24 hrs by broth microdilution method
[4] = test system: Staphylococcus epidermidis; assay: Antibacterial activity against penicillin-resistant Staphylococcus epidermidis clinical isolate after 24 hrs by broth microdilution method
Staphylococcus aureus [5] = assay: Potency index, ratio of ciprofloxacin MIC to test compound MIC for penicillin-resistant Staphylococcus aureus clinical isolate
Streptococcus pyogenes [6] = assay: Antibacterial activity against penicillin-susceptible Streptococcus pyogenes after 24 hrs by broth microdilution method
Streptococcus pyogenes [7] = assay: Antibacterial activity against penicillin-resistant Streptococcus pyogenes after 24 hrs by broth microdilution method
Bacillus subtilis = assay: Antibacterial activity against penicillin-susceptible Bacillus subtilis ATCC 9372 after 24 hrs by broth microdilution method; details: ATCC 9372, 24 h
Bacillus pumilus = assay: Antibacterial activity against penicillin-susceptible Bacillus pumilus ATCC 63202 after 24 hrs by broth microdilution method; details: ATCC 63202, 24 h
Escherichia coli = assay: Antibacterial activity against penicillin-susceptible Escherichia coli ATCC 25922 after 24 hrs by broth microdilution method; details: ATCC 25922, 24 h
Pseudomonas aeruginosa = assay: Antibacterial activity against penicillin-susceptible Pseudomonas aeruginosa ATCC 27853 after 24 hrs by broth microdilution method; details: ATCC 27853, 24 h
Staphylococcus aureus [8] = assay: Potency index, ratio of ciprofloxacin MIC to test compound MIC for penicillin-susceptible Staphylococcus aureus ATCC 25923
Staphylococcus aureus [9] = assay: Potency index, ratio of oxacillin sodium MIC to test compound MIC for penicillin-susceptible Staphylococcus aureus ATCC 25923
Staphylococcus aureus [10] = assay: Potency index, ratio of ciprofloxacin MIC to test compound MIC for methicillin-resistant Staphylococcus aureus ATCC 43300
Staphylococcus aureus [11] = assay: Potency index, ratio of oxacillin sodium MIC to test compound MIC for methicillin-resistant Staphylococcus aureus ATCC 43300
Staphylococcus aureus [12] = assay: Potency index, ratio of oxacillin sodium MIC to test compound MIC for penicillin-resistant Staphylococcus aureus clinical isolate
Staphylococcus aureus [13] = assay: Bactericidal activity against penicillin-susceptible Staphylococcus aureus ATCC 25923 after 24 hrs by flat colony counting method; details: ATCC 25923, 24 h

SMILES	MIC (Staphylococcus aureus [1]) [µg/mL]	MIC (Staphylococcus aureus [2]) [µg/mL]	MIC (Staphylococcus aureus [3]) [µg/mL]	MIC [4] [µg/mL]	Ratio (Staphylococcus aureus [5])	MIC (Streptococcus pyogenes [6]) [µg/mL]	MIC (Streptococcus pyogenes [7]) [µg/mL]	MIC (Bacillus subtilis) [µg/mL]	MIC (Bacillus pumilus) [µg/mL]	MIC (Escherichia coli) [µg/mL]	MIC (Pseudomonas aeruginosa) [µg/mL]	Ratio (Staphylococcus aureus [8])	Ratio (Staphylococcus aureus [9])	Ratio (Staphylococcus aureus [10])	Ratio (Staphylococcus aureus [11])	Ratio (Staphylococcus aureus [12])	MBC (Staphylococcus aureus [13]) [µg/mL]
COc1ccc(-c2cc(C)c3c(c2)c2ccccc2c[n+]3C)cc1.[Cl-]	0.5	4	4	2	4 - 64	8	8	2	4	> 64	> 64	8 - 133	4 - 67	4 - 164	16 - 256	16 - 256	> 64
COc1ccc(-c2cc(OC)c3c(c2)c2ccccc2c[n+]3C)cc1.[Cl-]	16	32	64	16	–	4	8	2	8	> 64	> 64	–	–	–	–	–	> 64
COc1cc(-c2ccc(-c3ccccc3)cc2)cc2c3ccccc3c[n+](C)c12.[Cl-]	1	4	4	8	–	1	16	2	2	> 64	> 64	–	–	–	–	–	16
C[n+]1cc2ccccc2c2cc(-c3ccccc3C(F)(F)F)ccc21.[Cl-]	16	32	32	32	–	64	32	32	32	> 64	> 64	–	–	–	–	–	> 64
COc1cc(-c2ccc(C(F)(F)F)cc2)cc2c3ccccc3c[n+](C)c12.[Cl-]	2	4	8	8	–	0.5	8	1	2	> 64	> 64	–	–	–	–	–	32
Cc1cc(-c2cccc(C(F)(F)F)c2)cc2c3ccccc3c[n+](C)c12.[Cl-]	0.25	1	0.5	0.25	4 - 64	1	2	0.25	0.5	> 64	> 64	8 - 133	4 - 67	4 - 164	16 - 256	16 - 256	16
Cc1onc(-c2ccccc2)c1C(=O)N[C@@H]1C(=O)N2[C@@H]1SC(C)(C)[C@@H]2C(=O)[O-].[Na+]	4	> 64	> 64	> 64	–	1	> 64	4	32	> 64	> 64	–	–	–	–	–	–
Cc1cc(-c2ccccc2)cc2c3ccccc3c[n+](C)c12.[Cl-]	1	2	2	4	4 - 64	2	2	1	4	> 64	> 64	8 - 133	4 - 67	4 - 164	16 - 256	16 - 256	32
C[n+]1cc2ccccc2c2cc(-c3ccccc3)ccc21.[Cl-]	32	16	64	16	–	4	16	4	16	> 64	> 64	–	–	–	–	–	> 64
COc1ccc(-c2ccc3c(c2)c2ccccc2c[n+]3C)cc1.[Cl-]	4	64	64	64	–	4	16	4	16	> 64	> 64	–	–	–	–	–	> 64
Cc1cc(-c2ccc(OC(F)(F)F)cc2)cc2c3ccccc3c[n+](C)c12.[Cl-]	0.06	0.25	1	0.25	4 - 64	2	4	0.125	0.125	> 64	> 64	133	67	64	256	16 - 256	16
COc1cc(-c2ccccc2)cc2c3ccccc3c[n+](C)c12.[Cl-]	16	8	64	4	–	2	8	1	4	> 64	> 64	–	–	–	–	–	> 64
Cc1cc(-c2ccccc2C(F)(F)F)cc2c3ccccc3c[n+](C)c12.[Cl-]	0.5	1	1	0.5	4 - 64	2	2	0.5	2	> 64	> 64	8 - 133	4 - 67	4 - 164	16 - 256	16 - 256	32
COc1cc(-c2ccccc2C(F)(F)F)cc2c3ccccc3c[n+](C)c12.[Cl-]	8	16	16	16	–	16	16	16	16	> 64	> 64	–	–	–	–	–	> 64
COc1cc(-c2cccc(C(F)(F)F)c2)cc2c3ccccc3c[n+](C)c12.[Cl-]	2	8	8	4	–	4	8	4	4	> 64	> 64	–	–	–	–	–	32
COc1cc(-c2ccc(C)cc2)cc2c3ccccc3c[n+](C)c12.[Cl-]	4	4	16	16	–	2	8	0.5	2	> 64	> 64	–	–	–	–	–	64
C[n+]1cc2ccccc2c2cc(-c3ccc(-c4ccccc4)cc3)ccc21.[Cl-]	8	64	8	> 64	–	2	64	8	16	> 64	> 64	–	–	–	–	–	> 64
COc1cc(-c2ccc(OC(F)(F)F)cc2)cc2c3ccccc3c[n+](C)c12.[Cl-]	1	4	8	16	–	2	16	4	2	> 64	> 64	–	–	–	–	–	32
C[n+]1cc2ccccc2c2cc(-c3ccc(OC(F)(F)F)cc3)ccc21.[Cl-]	4	64	64	16	–	4	32	2	8	> 64	> 64	–	–	–	–	–	64
COc1cc(/C=C/C(=O)CC(=O)/C=C/c2ccc(O)c(OC)c2)ccc1O [CURCUMIN]	32 (≈ 86.9 µM)	64 (≈ 174 µM)	> 64	> 64	–	> 64	–	32 (≈ 86.9 µM)	32 (≈ 86.9 µM)	> 64	> 64	–	–	–	–	–	–
C[n+]1cc2ccccc2c2cc(-c3ccc(C(F)(F)F)cc3)ccc21.[Cl-]	8	16	16	> 64	–	2	16	4	8	> 64	> 64	–	–	–	–	–	> 64
Cc1ccc(-c2ccc3c(c2)c2ccccc2c[n+]3C)cc1.[Cl-]	8	16	16	32	–	4	16	2	8	> 64	> 64	–	–	–	–	–	> 64
C[n+]1cc2ccccc2c2cc(-c3cccc(C(F)(F)F)c3)ccc21.[Cl-]	8	16	16	8	–	16	8	16	16	> 64	> 64	–	–	–	–	–	> 64
